Assay results published in US6737383B1, “Herbicidal oxadiazolidines” (priority 1999, dated 2004).

Legend:
cocklebur = experiment: Test B pre/postemergence cocklebur; type: in vivo, Xanthium strumarium
Method in brief: (§1)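 Response is a visual 0-to-10 score relative to untreated plants, where 0 means no effect and 10 means complete control, taken twelve to sixteen days after application. Treatments went onto soil at planting and onto foliage of 1- to 4-leaf plants, using a surfactant-containing non-phytotoxic solvent.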

corn = experiment: Test B pre/postemergence corn; type: in vivo, Zea mays
Method in brief: as §1

crabgrass = experiment: Test B pre/postemergence crabgrass; type: in vivo, Digitaria sanguinalis
Method in brief: as §1

giant foxtail = experiment: Test B pre/postemergence giant foxtail; type: in vivo, Setaria faberii
Method in brief: as §1

morningglory = experiment: Test B pre/postemergence morningglory; type: in vivo, Ipomoea hederacea
Method in brief: as §1

pigweed = experiment: Test B pre/postemergence pigweed; type: in vivo, Amaranthus retroflexus
Method in brief: as §1

rape = experiment: Test B pre/postemergence rape; type: in vivo, Brassica napus
Method in brief: as §1

soybean = experiment: Test B pre/postemergence soybean; type: in vivo, Glycine max
Method in brief: as §1

sugar beet = experiment: Test B pre/postemergence sugar beet; type: in vivo, Beta vulgaris
Method in brief: as §1

velvetleaf = experiment: Test B pre/postemergence velvetleaf; type: in vivo, Abutilon theophrasti
Method in brief: as §1

wheat = experiment: Test B pre/postemergence wheat; type: in vivo, Triticum aestivum
Method in brief: as §1

wild oat = experiment: Test B pre/postemergence wild oat; type: in vivo, Avena fatua
Method in brief: as §1

purple nutsedge = experiment: Test B pre/postemergence purple nutsedge; type: in vivo, Cyperus rotundus
Method in brief: as §1

rice = experiment: Test B flood test rice; type: in vivo, Oryza sativa; details: Pre-emergence
Method in brief: (§2)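 Read-out is a visual response score from 0 (no effect) to 10 (complete control), assigned by comparison with untreated controls. Treatment was applied at the 2-leaf stage, and plants stayed in the greenhouse for twelve to sixteen days before scoring.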

duck salad = experiment: Test B flood test duck salad; type: in vivo, Heteranthera limosa; details: Pre-emergence
Method in brief: as §2

bamyardgrass = experiment: Test B flood test barnyardgrass; type: in vivo, Echinochloa crus-galli; details: Pre-emergence
Method in brief: as §2

[1] = Postemergence, Rate 1000 g/ha, scale 0 to 10 (0 no effect, 10 complete control)
[2] = Preemergence, Rate 500 g/ha, scale of 0 to 10 where 0 is no effect and 10 is complete control
[3] = Rate 125 g/ha, Postemergence, scale of 0 to 10 where 0 is no effect and 10 is complete control
[4] = Rate 250 g/ha, Postemergence, scale of 0 to 10 where 0 is no effect and 10 is complete control
[5] = Rate 500 g/ha, Postemergence, scale 0 to 10, 0 no effect, 10 complete control
[6] = Rate 1000 g/ha, Preemergence, scale 0 to 10 (0 no effect, 10 complete control)
[7] = Preemergence, Rate 250 g/ha, scale of 0 to 10 where 0 is no effect and 10 is complete control
[8] = Rate 125 g/ha, Preemergence, scale of 0 to 10 where 0 is no effect and 10 is complete control
[9] = Rate 1000 g/ha, scale 0 to 10 (0 no effect, 10 complete control)
[10] = Rate 125 g/ha, flood test species, scale 0 to 10 where 0 is no effect and 10 is complete control
[11] = Rate 250 g/ha, flood-test species, scale 0 to 10, 0 is no effect, 10 is complete control
[12] = Rate 500 g/ha, flood test species, scale 0 to 10 (0 no effect, 10 complete control)

C=CCn1c(=O)on(C(=O)N(c2ccc(F)cc2)C(C)C(=O)OCC)c1=O (centres unmarked) [Compound 279]
Cocklebur plant response rating (cocklebur; [1]): 0
Plant response rating, Cocklebur (cocklebur; [2]): 0
Cocklebur plant response rating (cocklebur; [3]): 0
Plant response rating, Cocklebur (cocklebur; [4]): 0
Cocklebur plant response rating (cocklebur; [5]): 0
Plant response rating, Cocklebur (cocklebur; [6]): 0
Corn plant response rating (corn; [1]): 0
Corn plant response rating (corn; [7]): 0
Plant response rating, Corn (corn; [2]): 0
Corn plant response rating (corn; [3]): 0
Corn plant response rating (corn; [8]): 0
Plant response rating, Corn (corn; [4]): 0
Corn plant response rating (corn; [5]): 0
Plant response rating, Corn (corn; [6]): 0
Crabgrass plant response rating (crabgrass; [7]): 0
Plant response rating, Crabgrass (crabgrass; [2]): 1
Crabgrass plant response rating (crabgrass; [3]): 0
Crabgrass plant response rating (crabgrass; [8]): 0
Plant response rating, Crabgrass (crabgrass; [4]): 0
Crabgrass plant response rating (crabgrass; [5]): 0
Plant response rating, Crabgrass (crabgrass; [6]): 4
Giant foxtail plant response rating (giant foxtail; [1]): 4
Giant foxtail plant response rating (giant foxtail; [7]): 6
Plant response rating, Giant foxtail (giant foxtail; [2]): 7
Giant foxtail plant response rating (giant foxtail; [3]): 0
Giant foxtail plant response rating (giant foxtail; [8]): 3
Plant response rating, Giant foxtail (giant foxtail; [4]): 0
Giant foxtail plant response rating (giant foxtail; [5]): 1
Plant response rating, Giant foxtail (giant foxtail; [6]): 7
Morningglory plant response rating (morningglory; [1]): 3
Morningglory plant response rating (morningglory; [7]): 0
Plant response rating, Morningglory (morningglory; [2]): 0
Morningglory plant response rating (morningglory; [3]): 1
Morningglory plant response rating (morningglory; [8]): 0
Plant response rating, Morningglory (morningglory; [4]): 2
Morningglory plant response rating (morningglory; [5]): 2
Plant response rating, Morningglory (morningglory; [6]): 0
Redroot pigweed plant response rating (pigweed; [1]): 4
Redroot pigweed plant response rating (pigweed; [7]): 0
Plant response rating, Redroot pigweed (pigweed; [2]): 0
Redroot pigweed plant response rating (pigweed; [3]): 0
Redroot pigweed plant response rating (pigweed; [8]): 0
Plant response rating, Redroot pigweed (pigweed; [4]): 2
Redroot pigweed plant response rating (pigweed; [5]): 2
Plant response rating, Redroot pigweed (pigweed; [6]): 0
Rape plant response rating (rape; [1]): 0
Rape plant response rating (rape; [7]): 0
Plant response rating, Rape (rape; [2]): 0
Rape plant response rating (rape; [3]): 0
Rape plant response rating (rape; [8]): 0
Plant response rating, Rape (rape; [4]): 0
Rape plant response rating (rape; [5]): 0
Plant response rating, Rape (rape; [6]): 0
Soybean plant response rating (soybean; [1]): 4
Soybean plant response rating (soybean; [7]): 0
Plant response rating, Soybean (soybean; [2]): 0
Soybean plant response rating (soybean; [3]): 0
Soybean plant response rating (soybean; [8]): 0
Plant response rating, Soybean (soybean; [4]): 2
Soybean plant response rating (soybean; [5]): 4
Plant response rating, Soybean (soybean; [6]): 0
Sugarbeets plant response rating (sugar beet; [1]): 4
Sugarbeets plant response rating (sugar beet; [7]): 0
Plant response rating, Sugarbeets (sugar beet; [2]): 0
Sugarbeets plant response rating (sugar beet; [3]): 0
Sugarbeets plant response rating (sugar beet; [8]): 0
Plant response rating, Sugarbeets (sugar beet; [4]): 0
Sugarbeets plant response rating (sugar beet; [5]): 0
Plant response rating, Sugarbeets (sugar beet; [6]): 0
Velvetleaf plant response rating (velvetleaf; [1]): 0
Velvetleaf plant response rating (velvetleaf; [7]): 0
Plant response rating, Velvetleaf (velvetleaf; [2]): 0
Velvetleaf plant response rating (velvetleaf; [3]): 0
Velvetleaf plant response rating (velvetleaf; [8]): 0
Plant response rating, Velvetleaf (velvetleaf; [4]): 0
Velvetleaf plant response rating (velvetleaf; [5]): 0
Plant response rating, Velvetleaf (velvetleaf; [6]): 0
Wheat plant response rating (wheat; [1]): 1
Wheat plant response rating (wheat; [7]): 0
Plant response rating, Wheat (wheat; [2]): 0
Wheat plant response rating (wheat; [3]): 0
Wheat plant response rating (wheat; [8]): 0
Plant response rating, Wheat (wheat; [4]): 0
Wheat plant response rating (wheat; [5]): 0
Plant response rating, Wheat (wheat; [6]): 0
Wild oats plant response rating (wild oat; [1]): 0
Wild oats plant response rating (wild oat; [7]): 0
Plant response rating, Wild oats (wild oat; [2]): 0
Wild oats plant response rating (wild oat; [3]): 0
Plant response rating, Wild oats (wild oat; [4]): 0
Wild oats plant response rating (wild oat; [5]): 0
Plant response rating, Wild oats (wild oat; [6]): 0
Nutsedge plant response rating (purple nutsedge; [1]): 0
Nutsedge plant response rating (purple nutsedge; [7]): 0
Nutsedge plant response rating (purple nutsedge; [3]): 0
Plant response rating, Nutsedge (purple nutsedge; [4]): 0
Nutsedge plant response rating (purple nutsedge; [5]): 0
Plant response rating, Nutsedge (purple nutsedge; [6]): 0
Rice plant response rating (rice; [9]): 0
Rice plant response rating (rice; [10]): 0
Rice plant response rating (rice; [11]): 0
Rice plant response rating (rice; [12]): 0
Ducksalad plant response rating (duck salad; [9]): 0
Ducksalad plant response rating (duck salad; [10]): 0
Ducksalad plant response rating (duck salad; [11]): 0
Ducksalad plant response rating (duck salad; [12]): 0
Barnyardgrass plant response rating (bamyardgrass; [9]): 0
Barnyardgrass plant response rating (bamyardgrass; [10]): 0
Barnyardgrass plant response rating (bamyardgrass; [11]): 0
Barnyardgrass plant response rating (bamyardgrass; [12]): 0
